Drawing on patent US20250268903A1, “RXFP1 AGONISTS” (BRISTOL-MYERS SQUIBB COMPANY, priority 2021, published 2025), this text covers EC50 for 23 molecules.

pEC50: −log10 of the molar value.

The experiment concerns the target T1, human RXFP1 (Homo sapiens, UniProt Q9HBX9).
T1 construct: expressed in transfected cells
T1 sequence (Q9HBX9 1-757): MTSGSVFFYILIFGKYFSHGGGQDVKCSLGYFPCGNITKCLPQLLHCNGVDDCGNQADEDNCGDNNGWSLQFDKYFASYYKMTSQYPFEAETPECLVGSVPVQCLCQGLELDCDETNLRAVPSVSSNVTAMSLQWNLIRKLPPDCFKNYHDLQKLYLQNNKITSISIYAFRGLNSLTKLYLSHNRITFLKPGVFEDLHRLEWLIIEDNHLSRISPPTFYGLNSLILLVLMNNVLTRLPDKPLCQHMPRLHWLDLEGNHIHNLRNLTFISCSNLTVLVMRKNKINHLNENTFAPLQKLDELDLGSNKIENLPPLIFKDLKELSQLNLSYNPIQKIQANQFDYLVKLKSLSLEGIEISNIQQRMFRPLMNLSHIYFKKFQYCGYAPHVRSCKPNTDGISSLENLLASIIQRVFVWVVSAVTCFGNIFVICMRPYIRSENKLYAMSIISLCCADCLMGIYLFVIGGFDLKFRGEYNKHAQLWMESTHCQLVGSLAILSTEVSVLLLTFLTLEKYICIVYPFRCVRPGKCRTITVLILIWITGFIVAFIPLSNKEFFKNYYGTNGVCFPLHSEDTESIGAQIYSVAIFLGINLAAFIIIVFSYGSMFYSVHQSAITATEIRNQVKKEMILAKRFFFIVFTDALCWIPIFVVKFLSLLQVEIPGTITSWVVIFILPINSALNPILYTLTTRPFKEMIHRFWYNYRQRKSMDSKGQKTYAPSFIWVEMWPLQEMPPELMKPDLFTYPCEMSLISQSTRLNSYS
Nature of the experiment: hRXFP1 HEK293 cAMP assay (HTRF). Type of experiment: cell-based. As to conditions: HEK293 cells stably expressing human RXFP1, 30 min at room temperature. In short, it runs like this:
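Intracellular cAMP was read by HTRF, with potency fitted to a 4-parameter logistic curve. Compound exposure (0.010 nM–50 μM final, 2% DMSO) lasted 30 min at room temperature. Cells were hRXFP1-HEK293 at 1500 per well in IBMX-containing (0.5 mM) HEPES-buffered HBSS.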
As for `COc1ccc(S(=O)(=O)NC[C@H](C)O)cc1C(=O)N[C@@H]1C2CCC(/C2=C/C(F)(F)F)[C@@H]1C(=O)Nc1ccc(F)c(C(F)(F)F)c1` (stereo partly drawn) [Example 197, (1R,2S,3R,4R,Z)—N-(4-fluoro-3-(trifluoromethyl)phenyl)-3-(5-(N—((S)-2-hydroxypropyl)sulfamoyl)-2-methoxybenzamido)-7-(2,2,2-trifluoroethylidene) bicyclo[2.2.1]heptane-2-carboxamide], the pEC50 was 6.04.

For the molecule `COc1ccc(CCCOc2ccncc2)cc1C(=O)NC1C2CCC(/C2=C/C(F)(F)F)[C@@H]1C(=O)Nc1ccc(F)c(C(F)(F)F)c1` (some centres unmarked) [Example 104], the pEC50 is 6.01.

The molecule `COc1ccc(C(F)(F)F)cc1C(=O)N[C@@H]1C2CCC(C2=C(C)C)[C@@H]1C(=O)Nc1ccc(F)c(C(F)(F)F)c1` (some centres unmarked) [Example 359] gave a pEC50 of 5.82.

Molecule `COc1ccc(C#CCCOC(=O)NC2CCC2)cc1C(=O)N[C@@H]1C2CCC(/C2=C/C(F)(F)F)[C@@H]1C(=O)Nc1ccc(F)c(C(F)(F)F)c1` (stereo partly drawn) [Example 79, 4-(3-{[(2R,3S,7Z)-3-{[4-fluoro-3-(trifluoromethyl)phe-nyl]carbamoyl}-7-(2,2,2-trifluoroethylidene)bi-cyclo[2.2.1]heptan-2-yl]carbamoyl}-4-methoxyphenyl)but-3-yn-1-yl N-cyclobutylcarbamate] had a pEC50 of 6.98.

Molecule `COC(=O)OCC/C=C/c1ccc(OC)c(C(=O)N[C@H]2[C@@H](C(=O)Nc3ccc(F)c(C(F)(F)F)c3)[C@H]3CC[C@@H]2C3=C(C)C)c1` [Example 33, (E)-4-(3-(((1R,2R,3S,4R)-3-((4-fluoro-3-(trifluoromethyl)phenyl)carbamoyl)-7-(propan-2-ylidene)bicyclo[2.2.1]heptan-2-yl)carbamoyl)-4-methoxyphenyl) but-3-en-1-yl methyl carbonate] gave a negative logarithm of the EC50 (pEC50) of 6.24.

Turning to `COCC/C=C1\C2CCC1[C@H](C(=O)Nc1ccc(F)c(C(F)(F)F)c1)C2NC(=O)c1cc(CCC(C)(C)O)ccc1OC` (some centres unmarked) [Example 162, (7Z)-N-[4-fluoro-3-(trifluoromethyl)phe-nyl]-3-[5-(3-hydroxy-3-methylbutyl)-2-methoxybenzamido]-7-(3-methoxypropylidene) bicyclo[2.2.1]heptane-2-carboxamide], the pEC50 was 5.91.

`COc1ccc(/C=C/C(=O)N2CC(O)C2)cc1C(=O)N[C@H]1[C@@H](C(=O)Nc2ccc(F)c(C(F)(F)F)c2)[C@H]2CC[C@@H]1/C2=C\C(F)(F)F` [Example 314] had a pEC50 of 7.18.

On to `COc1ccc(C(=O)N2CCC(S(C)(=O)=O)C2)cc1C(=O)N[C@H]1[C@@H](C(=O)Nc2ccc(F)c(C(F)(F)F)c2)[C@H]2CC[C@@H]1/C2=C\C1CC1` (some centres unmarked) [Example 256], for which the pEC50 is 7.90.

Turning to `COc1ccc(/C=C/C(=O)NCCO)cc1C(=O)N[C@@H]1C2CCC(/C2=C/C(F)(F)F)[C@@H]1C(=O)Nc1ccc(F)c(C(F)(F)F)c1` (stereo partly drawn) [Example 133, (2S,3R,7Z)-N-[4-fluoro-3-(trifluoromethyl)phe-nyl]-3-{5-[(1E)-2-[(2-hydroxyethyl)carba-moyl]eth-1-en-1-yl]-2-methoxybenzamido}-7-(2,2,2-trifluoroethylidene)bi-cyclo[2.2.1]heptane-2-carboxamide], the pEC50 was 6.42.

As for `COc1ccc(COC2(C(=O)NCCO)CC2)cc1C(=O)N[C@@H]1C2CCC(/C2=C/C2CC2)[C@@H]1C(=O)Nc1ccc(F)c(C(F)(F)F)c1` (some centres unmarked) [Example 17], the pEC50 is 6.92.

`COc1ccc(COC2CCC(O)CC2)cc1C(=O)N[C@H]1[C@@H](C(=O)Nc2ccc(F)c(C(F)(F)F)c2)[C@H]2CC[C@@H]1/C2=C\C1CC1` (stereo partly drawn) [Example 290, (1R,2S,3R,4R,7Z)-7-(cyclopropyl-methylidene)-N-[4-fluoro-3-(trifluoromethyl)phenyl]-3-(5-{[(4-hydroxycyclohexyl)oxy]methyl}-2-methoxybenzamido) bicyclo[2.2.1]heptane-2-carboxamide] had a pEC50 of 7.12.

As to `COc1ccc(C(=O)N2CC[C@@H](CO)C2)cc1C(=O)N[C@H]1[C@@H](C(=O)Nc2ccc(F)c(C(F)(F)F)c2)[C@H]2CC[C@@H]1/C2=C\C1CC1` [Example 245, (1R,2S,3R,4R,7Z)-7-(cyclopropyl-methylidene)-N-[4-fluoro-3-(trifluoromethyl)phenyl]-3-{5-[(3R)-3-(hydroxymethyl)pyrrolidine-1-carbonyl]-2-methoxybenzamido} bicyclo[2.2.1]heptane-2-carboxamide], the pEC50 is 7.42.

Molecule `COc1ccc(C2CCC(O)CC2)cc1C(=O)NC1C2CCC(/C2=C/C(F)(F)F)[C@@H]1C(=O)Nc1ccc(F)c(C(F)(F)F)c1` (single isomer, unassigned) [Example 53] showed a pEC50 of 6.40.

Consider “(1R,4R,7Z)-N-[4- fluoro-3- (trifluoromethyl) phenyl]-3-[5-(3- hydroxypropyl)-2- methoxybenzamido]- 7-[(oxolan-3- yl)methylidene] bicyclo[2.2.1] heptane- 2-carboxamide [Example 264]”, for which the negative logarithm of the EC50 (pEC50) is 6.34.

`CCCc1ccc(OC)c(C(=O)N[C@@H]2C3CCC(/C3=C/C(F)(F)F)[C@@H]2C(=O)Nc2ccc(F)c(C(F)(F)F)c2)c1` (stereo partly drawn) [Example 85, (2S,3R,7Z)-N-[4-fluoro-3-(trifluoromethyl)phe-nyl]-3-(2-methoxy-5-propylbenzamido)-7-(2,2,2-trifluoroethylidene)bi-cyclo[2.2.1]heptane-2-carboxamide]: the pEC50 is 5.52.

For `COc1ccc(CCCO)cc1C(=O)NC1C2CCC(/C2=C/C2CCCOC2)[C@@H]1C(=O)Nc1ccc(F)c(C(F)(F)F)c1` (single isomer, unassigned) [Example 170, (7Z)-N-[4-fluoro-3-(trifluoromethyl)phe-nyl]-3-[5-(3-hydroxypropyl)-2-methoxybenzamido]-7-[(oxan-3-yl)methylidene]bicy-clo[2.2.1]heptane-2-carboxamide], the pEC50 was 7.29.

`COc1ccc(CC(=O)N2CCC(C)(O)C2)cc1C(=O)NC1C(C(=O)Nc2ccc(F)c(C(F)(F)F)c2)[C@H]2CC[C@@H]1/C2=C\C1CC1` (stereo partly drawn) [Example 357, (1R,4R,7Z)-7-(cyclopropyl-methylidene)-N-[4-fluoro-3-(trifluoromethyl)phenyl]-3-{5-[2-(3-hydroxy-3-methylpyrrolidin-1-yl)-2-oxoethyl]-2-methoxybenzamido} bicyclo[2.2.1]heptane-2-carboxamide] had a negative-log EC50 (pEC50) of 5.89.

Molecule `COc1ccc(CCC(C)(C)O)cc1C(=O)NC1C2CCC(/C2=C/CC(F)F)[C@@H]1C(=O)Nc1ccc(F)c(C(F)(F)F)c1` (some centres unmarked) [Example 175, (7Z)-7-(3,3-difluoropropylidene)-N-[4-fluoro-3-(trifluoromethyl)phe-nyl]-3-[5-(3-hydroxy-3-methylbutyl)-2-methoxybenzamido] bicyclo[2.2.1]heptane-2-carboxamide] had a pEC50 of 6.51.

On to `COc1ccc(CCCCCCO)cc1C(=O)N[C@@H]1C2CCC(/C2=C/C(F)(F)F)[C@@H]1C(=O)Nc1ccc(F)c(C(F)(F)F)c1` (stereo partly drawn) [Example 99, (2S,3R,7Z)-N-[4-fluoro-3-(trifluoromethyl)phe-nyl]-3-[5-(6-hydroxyhexyl)-2-methoxybenzamido]-7-(2,2,2-trifluoroethylidene)bi-cyclo[2.2.1]heptane-2-carboxamide], for which the pEC50 was 6.57.

`COc1ccc(CCC(O)C(F)(F)F)cc1C(=O)N[C@@H]1C2CCC(/C2=C/C(F)(F)F)[C@@H]1C(=O)Nc1ccc(F)c(C(F)(F)F)c1` (stereo partly drawn) [Example 100, (2S,3R,7Z)-N-[4-fluoro-3-(trifluoromethyl)phe-nyl]-3-[2-methoxy-5-(4,4,4-trifluoro-3-hydroxybutyl)benza-mido]-7-(2,2,2-trifluoroethylidene)bi-cyclo[2.2.1]heptane-2-carboxamide] showed a pEC50 of 6.43.

`COc1ccc(S(=O)(=O)N2CC3COCC3C2)cc1C(=O)NC1C2CCC(/C2=C/C(F)(F)F)[C@@H]1C(=O)Nc1ccc(F)c(C(F)(F)F)c1` (stereo partly drawn) [Example 205, (2S,3R,7Z)-N-[4-fluoro-3-(trifluoromethyl)phe-nyl]-3-(5-{hexahydro-1H-furo[3,4-c]pyrrole-5-sulfonyl}-2-methoxybenzamido)-7-(2,2,2-trifluoroethylidene)bi-cyclo[2.2.1]heptane-2-carboxamide] gave a pEC50 of 6.21.

On to `COc1ccc(CCCC(F)F)cc1C(=O)NC1C2CCC(/C2=C/C2CCC2)[C@@H]1C(=O)Nc1ccc(F)c(C(F)(F)F)c1` (some centres unmarked) [Example 196, (7Z)-7-(cyclobutylmethyl-idene)-3-[5-(4,4-difluorobutyl)-2-methoxybenzamido]-N-[4-fluoro-3-(trifluoromethyl)phe-nyl]bicyclo[2.2.1] heptane-2-carboxamide], for which the pEC50 is 7.49.

`COc1ccc(C2CCCC(NC(=O)C3CCOCC3)C2)cc1C(=O)N[C@@H]1C2CCC(/C2=C/C(F)(F)F)[C@@H]1C(=O)Nc1ccc(F)c(C(F)(F)F)c1` (single isomer, unassigned) [Example 48] had a negative logarithm of the EC50 (pEC50) of 6.08.
